In patent publication US8952024B2, “Herbicidal pyrimidone derivatives” (E I du Pont de Nemours and Company, priority 2009, dated 2015):

Key:
Assay type in all cases: in vivo
[1] = test system: bermudagrass (Cynodon dactylon); test: Test B pre-/postemergence plant response; conditions: for Bermudagrass plant response rating (0 to 100 scale): 0 is no effect, 13 to 15 days
In short: (§1)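 Pre-em in loam/sand; post-em at 1–4 leaf (2–18 cm) in peat mix. Solvent + surfactant formulation. Greenhouse 13–15 d; visual % control vs untreated, 0–100.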

[2] = test system: pigweed (Amaranthus retroflexus); test: Test B pre-/postemergence plant response; conditions: for Pigweed plant response rating (0 to 100 scale): 0 is no effect, 13 to 15 days
In short: as §1

[3] = test system: wheat (Triticum aestivum); test: Test B pre-/postemergence plant response; conditions: for Wheat plant response rating (0 to 100 scale): 0 is no effect, 13 to 15 days
In short: as §1

[4] = test system: sunflower (common oilseed sunflower, Helianthus annuus); test: Test B pre-/postemergence plant response; conditions: Preemergence
In short: as §1

[5] = test system: Italian ryegrass (Lolium multiflorum); test: Test B pre-/postemergence plant response; conditions: for Ryegrass, Italian plant response rating (0 to 100 scale): 0 is no effect, 13 to 15 days
In short: as §1

[6] = test system: nightshade (eastern black nightshade, Solanum ptycanthum); test: Test B pre-/postemergence plant response; conditions: Preemergence
In short: as §1

[7] = test system: lambsquarters (Chenopodium album); test: Test B pre-/postemergence plant response; conditions: for Lambsquarters plant response rating (0 to 100 scale): 0 is no effect, 13 to 15 days
In short: as §1

[8] = test system: ragweed (common ragweed, Ambrosia elatior); test: Test B pre-/postemergence plant response; conditions: for Ragweed plant response rating (0 to 100 scale): 0 is no effect, 13 to 15 days
In short: as §1

[9] = test system: galium (catchweed bedstraw, Galium aparine); test: Test B pre-/postemergence plant response; conditions: Preemergence
In short: as §1

[10] = test system: canarygrass (Phalaris minor); test: Test B postemergence plant response; conditions: for Canarygrass plant response rating (0 to 100 scale): 62 g ai/ha, 0 is no effect, 13 to 15 days
In short: (§2)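 Plants at the 1- to 4-leaf stage (2 to 18 cm tall), grown in pots of peat moss/vermiculite medium with wetting agent and starter nutrients, received postemergence applications of test chemicals. After 13 to 15 days in a greenhouse, injury was rated visually against untreated controls on a 0 (no effect) to 100 (complete control) scale.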

[11] = test system: winter barley (Hordeum vulgare); test: Test B postemergence plant response; conditions: for Barley plant response rating (0 to 100 scale): 62 g ai/ha, 0 is no effect, 13 to 15 days
In short: as §2

[12] = test system: chickweed (Stellaria media); test: Test B postemergence plant response; conditions: for Chickweed plant response rating (0 to 100 scale): 62 g ai/ha, 0 is no effect, 13 to 15 days
In short: as §2

[13] = test system: windgrass (Apera spica-venti); test: Test B postemergence plant response; conditions: for Windgrass plant response rating (0 to 100 scale): 62 g ai/ha, 0 is no effect, 13 to 15 days
In short: as §2

[14] = 31 g ai/ha, postemergence, scale 0 to 100, 0 is no effect, 100 is complete control
[15] = 62 g ai/ha, postemergence, 100 is complete control
[16] = 250 g ai/ha, Preemergence, 0 to 100 scale
[17] = Postemergence, 125 g ai/ha, visual rating after 13 to 15 days, scale 0 (no effect) to 100 (complete control)
[18] = Postemergence, 250 g ai/ha, scale 0 to 100 (0 no effect, 100 complete control)
[19] = Preemergence, 31 g ai/ha, scale 0 to 100 (0 no effect, 100 complete control)
[20] = Preemergence, 62 g ai/ha, scale 0 to 100, 0 no effect, 100 complete control
[21] = Preemergence, 125 g ai/ha, scale 0 to 100, 0 no effect, 100 complete control
[22] = 31 g ai/ha, scale 0 to 100 (0 no effect, 100 complete control)
[23] = 62 g ai/ha, scale 0 to 100, 0 no effect, 100 complete control
[24] = 125 g ai/ha, scale 0 to 100, 0 no effect, 100 complete control
[25] = postemergence, 100 is complete control
[26] = 16 g ai/ha, Postemergence, 0 to 100 scale
[27] = Preemergence, 16 g ai/ha, scale 0 to 100, 0 no effect, 100 complete control

## CC(C)Cc1ncc(C(=O)C2=C(O)CCCC2=O)c(=O)n1-c1ccccc1 [Compound 68]
[1]; [14]
  Plant response rating, Bermudagrass: 75
[1]; [15]
  Bermudagrass plant response rating (0 to 100 scale): 75
[1]; [16]
  Plant response rating, Bermudagrass: 100
[1]; [17]
  Plant response rating, Bermudagrass: 95
[1]; [18]
  Plant response rating, Bermudagrass: 98
[1]; [19]
  Plant response rating, Bermudagrass: 95
[1]; [20]
  Plant response rating, Bermudagrass: 98
[1]; [21]
  Plant response rating, Bermudagrass: 98
[2]; [14]
  Plant response rating, Pigweed: 85
[2]; [15]
  Pigweed plant response rating (0 to 100 scale): 95
[2]; [17]
  Plant response rating, Pigweed: 100
[2]; [18]
  Plant response rating, Pigweed: 100
[2]; [19]
  Plant response rating, Pigweed: 95
[2]; [20]
  Plant response rating, Pigweed: 98
[2]; [21]
  Plant response rating, Pigweed: 100
[3]; [14]
  Plant response rating, Wheat: 5
[3]; [15]
  Wheat plant response rating (0 to 100 scale): 5
[3]; [17]
  Plant response rating, Wheat: 5
[3]; [18]
  Plant response rating, Wheat: 10
[3]; [19]
  Plant response rating, Wheat: 0
[3]; [20]
  Plant response rating, Wheat: 0
[3]; [21]
  Plant response rating, Wheat: 0
[4]; [22]
  Plant response rating, Sunflower: 0
[4]; [23]
  Plant response rating, Sunflower: 60
[4]; [24]
  Plant response rating, Sunflower: 75
[5]; [14]
  Plant response rating, Ryegrass, Italian: 5
[5]; [15]
  Ryegrass, Italian plant response rating (0 to 100 scale): 5
[5]; [17]
  Plant response rating, Ryegrass, Italian: 15
[5]; [18]
  Plant response rating, Ryegrass, Italian: 50
[5]; [19]
  Plant response rating, Ryegrass, Italian: 0
[5]; [20]
  Plant response rating, Ryegrass, Italian: 0
[5]; [21]
  Plant response rating, Ryegrass, Italian: 0
[6]; [22]
  Plant response rating, Nightshade: 98
[6]; [23]
  Plant response rating, Nightshade: 98
[6]; [24]
  Plant response rating, Nightshade: 100
[7]; [14]
  Plant response rating, Lambsquarters: 95
[7]; [15]
  Lambsquarters plant response rating (0 to 100 scale): 98
[7]; [16]
  Plant response rating, Lambsquarters: 100
[7]; [17]
  Plant response rating, Lambsquarters: 100
[7]; [18]
  Plant response rating, Lambsquarters: 100
[7]; [19]
  Plant response rating, Lambsquarters: 98
[7]; [20]
  Plant response rating, Lambsquarters: 98
[7]; [21]
  Plant response rating, Lambsquarters: 98
[8]; [14]
  Plant response rating, Ragweed: 75
[8]; [15]
  Ragweed plant response rating (0 to 100 scale): 80
[8]; [17]
  Plant response rating, Ragweed: 80
[8]; [18]
  Plant response rating, Ragweed: 95
[8]; [19]
  Plant response rating, Ragweed: 10
[8]; [20]
  Plant response rating, Ragweed: 75
[8]; [21]
  Plant response rating, Ragweed: 80
[9]; 250 g ai/ha, 0 to 100 scale
  Plant response rating, Galium: 85
[9]; [22]
  Plant response rating, Galium: 0
[9]; [23]
  Plant response rating, Galium: 70
[9]; [24]
  Plant response rating, Galium: 70
[10]; [14]
  Plant response rating, Canarygrass: 0
[10]; [25]
  Canarygrass plant response rating (0 to 100 scale): 0
[10]; [17]
  Plant response rating, Canarygrass: 35
[10]; [18]
  Plant response rating, Canarygrass: 35
[11]; [14]
  Plant response rating, Barley: 0
[11]; [25]
  Barley plant response rating (0 to 100 scale): 0
[11]; [17]
  Plant response rating, Barley: 25
[11]; [18]
  Plant response rating, Barley: 30
[12]; [14]
  Plant response rating, Chickweed: 85
[12]; [25]
  Chickweed plant response rating (0 to 100 scale): 90
[12]; [17]
  Plant response rating, Chickweed: 98
[12]; [18]
  Plant response rating, Chickweed: 100
[13]; [14]
  Plant response rating, Windgrass: 40
[13]; [25]
  Windgrass plant response rating (0 to 100 scale): 50
[13]; [17]
  Plant response rating, Windgrass: 65
[13]; [18]
  Plant response rating, Windgrass: 85

## O=C1CCCC(O)=C1C(=O)c1cnc(-c2cccc(Br)c2)n(-c2ccccc2)c1=O [Compound 69]
[1]; [26]
  Plant response rating, Bermudagrass: 85
[1]; [14]
  Plant response rating, Bermudagrass: 98
[1]; [15]
  Bermudagrass plant response rating (0 to 100 scale): 98
[1]; [17]
  Plant response rating, Bermudagrass: 98
[1]; [27]
  Plant response rating, Bermudagrass: 90
[1]; [19]
  Plant response rating, Bermudagrass: 98
[1]; [20]
  Plant response rating, Bermudagrass: 100
[1]; [21]
  Plant response rating, Bermudagrass: 100
[2]; [26]
  Plant response rating, Pigweed: 95
[2]; [14]
  Plant response rating, Pigweed: 98
[2]; [15]
  Pigweed plant response rating (0 to 100 scale): 100
[2]; [17]
  Plant response rating, Pigweed: 100
[2]; [27]
  Plant response rating, Pigweed: 95
[2]; [19]
  Plant response rating, Pigweed: 98
[2]; [20]
  Plant response rating, Pigweed: 100
[2]; [21]
  Plant response rating, Pigweed: 100
[3]; [26]
  Plant response rating, Wheat: 0
[3]; [14]
  Plant response rating, Wheat: 5
[3]; [15]
  Wheat plant response rating (0 to 100 scale): 5
[3]; [17]
  Plant response rating, Wheat: 10
[3]; [19]
  Plant response rating, Wheat: 0
[3]; [20]
  Plant response rating, Wheat: 0
[3]; [21]
  Plant response rating, Wheat: 0
[4]; [22]
  Plant response rating, Sunflower: 0
[4]; [23]
  Plant response rating, Sunflower: 0
[4]; [24]
  Plant response rating, Sunflower: 5
[5]; [26]
  Plant response rating, Ryegrass, Italian: 0
[5]; [14]
  Plant response rating, Ryegrass, Italian: 30
[5]; [15]
  Ryegrass, Italian plant response rating (0 to 100 scale): 50
[5]; [17]
  Plant response rating, Ryegrass, Italian: 50
[5]; [19]
  Plant response rating, Ryegrass, Italian: 0
[5]; [20]
  Plant response rating, Ryegrass, Italian: 0
[5]; [21]
  Plant response rating, Ryegrass, Italian: 0
[6]; 16 g ai/ha, scale 0 to 100, 0 no effect, 100 complete control
  Plant response rating, Nightshade: 80
[6]; [22]
  Plant response rating, Nightshade: 95
[6]; [23]
  Plant response rating, Nightshade: 98
[6]; [24]
  Plant response rating, Nightshade: 98
[7]; [26]
  Plant response rating, Lambsquarters: 100
[7]; [14]
  Plant response rating, Lambsquarters: 100
[7]; [15]
  Lambsquarters plant response rating (0 to 100 scale): 100
[7]; [17]
  Plant response rating, Lambsquarters: 100
[7]; [27]
  Plant response rating, Lambsquarters: 95
[7]; [19]
  Plant response rating, Lambsquarters: 98
[7]; [20]
  Plant response rating, Lambsquarters: 100
[7]; [21]
  Plant response rating, Lambsquarters: 100
[8]; [26]
  Plant response rating, Ragweed: 75
[8]; [14]
  Plant response rating, Ragweed: 90
[8]; [15]
  Ragweed plant response rating (0 to 100 scale): 90
[8]; [17]
  Plant response rating, Ragweed: 100
[8]; [19]
  Plant response rating, Ragweed: 65
[8]; [20]
  Plant response rating, Ragweed: 65
[8]; [21]
  Plant response rating, Ragweed: 65
[9]; [24]
  Plant response rating, Galium: 0
[10]; [26]
  Plant response rating, Canarygrass: 0
[10]; [14]
  Plant response rating, Canarygrass: 0
[10]; [25]
  Canarygrass plant response rating (0 to 100 scale): 0
[10]; [17]
  Plant response rating, Canarygrass: 25
[11]; [26]
  Plant response rating, Barley: 0
[11]; [14]
  Plant response rating, Barley: 5
[11]; [25]
  Barley plant response rating (0 to 100 scale): 5
[11]; [17]
  Plant response rating, Barley: 15
[12]; [26]
  Plant response rating, Chickweed: 95
[12]; [14]
  Plant response rating, Chickweed: 98
[12]; [25]
  Chickweed plant response rating (0 to 100 scale): 98
[12]; [17]
  Plant response rating, Chickweed: 98
[13]; [26]
  Plant response rating, Windgrass: 40
[13]; [14]
  Plant response rating, Windgrass: 60
[13]; [25]
  Windgrass plant response rating (0 to 100 scale): 60
[13]; [17]
  Plant response rating, Windgrass: 80
